Test results: patent publication US20080051429A1, “USE OF 4-AMINO-PIPERIDINES FOR TREATING SLEEP DISORDERS” (priority 2006, published 2008)

Tests used:
Histamine 2 = target: T1, Histamine 2 (Homo sapiens, UniProt P25021); test: R-SAT broad profiling; format: cell-based; details: read-out: pEC50/pIC50 (converted)
T1 construct: expressed in transfected cells; host or cells: NIH3T3
Protocol: (§1) The functional receptor assay, Receptor Selection and Amplification Technology (R-SAT), was used (with minor modifications from that previously described U.S. Pat. No. 5,707,798) to screen compounds for efficacy at the 5-HT2A receptor. Briefly, NIH3T3 cells were grown in 96 well tissue culture plates to 70-80% confluence. Cells were transfected for 12-16 hours with plasmid DNAs using superfect (Qiagen Inc.) as per manufacture's protocols. R-SAT's were generally performed with 50 ng/well of receptor and 20 ng/well of Beta-galactosidase plasmid DNA. All receptor and G-protein constructs used were in the pSI mammalian expression vector (Promega Inc) as described in U.S. Pat. No. 5,707,798. The 5HT2A receptor gene was amplified by nested PCR from brain cDNA using the oligodeoxynucleotides based on the published sequence (see Saltzman et. al. Biochem. Biophys. Res. Comm. 181:1469-78 (1991)). Large-scale transfections, cells were transfected for 12-16 hours, then trypsinized and frozen in DMSO. Frozen cells were later thawed, plated at 10,000-40,000 cells per well of a 96 well plate that contained drug. With both methods, cells were then grown in a humidified atmosphere with 5% ambient CO2 for five days. Media was then removed from the plates and marker gene activity was measured by the addition of the beta-galactosidase substrate ONPG (in PBS with 5% NP-40). The resulting colorimetric reaction was measured in a spectrophotometric plate reader (Titertek Inc.)at […]. All data were analyzed using the computer program XLFit (IDBSm). Efficacy is the percent maximal repression compared to repression by a control compound (ritanserin in the case of 5HT2A). pIC50 is the negative of the log(IC50), where IC50 is the calculated concentration in Molar that produces 50% maximal repression.
(§2) The R-SAT assay (described above in example 136) was used to investigate the selectivity of 2-(4-Methoxyphenyl)-N-(4-methylbenzyl)-N-(1-methylpiperidin-4-yl)acetamide hydrochloride.

m5 = target: T2, m5 (Homo sapiens, UniProt P08912); test: R-SAT broad profiling; format: cell-based; details: read-out: pEC50/pIC50 (converted)
T2 construct: expressed in transfected cells; host or cells: NIH3T3
T2 sequence (P08912 1-532): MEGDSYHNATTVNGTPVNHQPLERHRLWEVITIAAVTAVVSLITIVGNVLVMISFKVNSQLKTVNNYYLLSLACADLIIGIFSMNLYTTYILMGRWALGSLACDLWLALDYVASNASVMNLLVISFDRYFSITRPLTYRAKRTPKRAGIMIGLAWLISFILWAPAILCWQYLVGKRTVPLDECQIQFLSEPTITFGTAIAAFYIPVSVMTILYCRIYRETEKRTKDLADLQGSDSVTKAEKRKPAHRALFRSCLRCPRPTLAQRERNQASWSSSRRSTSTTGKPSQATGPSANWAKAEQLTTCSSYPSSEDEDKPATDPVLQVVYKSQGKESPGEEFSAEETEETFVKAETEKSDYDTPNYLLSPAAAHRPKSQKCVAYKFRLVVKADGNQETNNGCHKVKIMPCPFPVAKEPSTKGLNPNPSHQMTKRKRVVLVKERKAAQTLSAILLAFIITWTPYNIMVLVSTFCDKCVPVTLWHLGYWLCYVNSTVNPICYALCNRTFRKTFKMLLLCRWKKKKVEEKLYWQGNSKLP
Protocol: as §1, §2

beta 2 = target: T3, beta 2 (Homo sapiens, UniProt P07550); test: R-SAT broad profiling; format: cell-based; details: read-out: pEC50/pIC50 (converted)
T3 construct: expressed in transfected cells; host or cells: NIH3T3
Protocol: as §1, §2

K-opiod = target: T4, K-opiod (Homo sapiens, UniProt P41145); test: R-SAT broad profiling; format: cell-based; details: agonist; read-out: pEC50/pIC50 (converted)
T4 construct: expressed in transfected cells; host or cells: NIH3T3
Protocol: as §1, §2

Histamine 1 = target: T5, Histamine 1 (Homo sapiens, UniProt P35367); test: R-SAT broad profiling; format: cell-based; details: read-out: pEC50/pIC50 (converted)
T5 construct: expressed in transfected cells; host or cells: NIH3T3
Protocol: as §1, §2

D3 = target: T6, D3 (Homo sapiens, UniProt P35462); test: R-SAT broad profiling; format: cell-based; details: read-out: pEC50/pIC50 (converted)
T6 construct: expressed in transfected cells; host or cells: NIH3T3
Protocol: as §1, §2

beta 1 = target: T7, beta 1 (Homo sapiens, UniProt P08588); test: R-SAT broad profiling; format: cell-based; details: read-out: pEC50/pIC50 (converted)
T7 construct: expressed in transfected cells; host or cells: NIH3T3
Protocol: as §1, §2

alpha 2A = target: T8, alpha 2A (Homo sapiens, UniProt P08913); test: R-SAT broad profiling; format: cell-based; details: read-out: pEC50/pIC50 (converted)
T8 construct: expressed in transfected cells; host or cells: NIH3T3
T8 sequence (P08913 1-465): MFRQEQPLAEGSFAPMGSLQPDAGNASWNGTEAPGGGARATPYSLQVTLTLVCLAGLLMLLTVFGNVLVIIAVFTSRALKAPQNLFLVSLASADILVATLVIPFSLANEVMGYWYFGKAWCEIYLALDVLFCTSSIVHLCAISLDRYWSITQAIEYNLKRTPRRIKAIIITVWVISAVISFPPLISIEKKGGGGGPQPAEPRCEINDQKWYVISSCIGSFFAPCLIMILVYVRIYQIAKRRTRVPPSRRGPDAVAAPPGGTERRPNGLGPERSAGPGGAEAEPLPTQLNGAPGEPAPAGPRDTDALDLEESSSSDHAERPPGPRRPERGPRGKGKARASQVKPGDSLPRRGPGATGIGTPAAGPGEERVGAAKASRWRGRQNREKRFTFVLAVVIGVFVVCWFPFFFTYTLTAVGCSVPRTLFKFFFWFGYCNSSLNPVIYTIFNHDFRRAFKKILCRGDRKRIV
Protocol: as §1, §2

Plasma levels (LC/MS/MS) = format: in vivo, human; details: after 13 days; for plasma concentration, Mean: n = 9
Protocol: Plasma Levels: Blood samples were collected into Vacutainer® (dry sodium heparin, green top tube, 6 mL capacity) on Day −1 and again on Day 14 (pre-dose). The time interval between blood collection and freezing of the plasma was no longer than 45 minutes. Within 45 minutes of collection, the plasma fractions were separated by centrifugation at 3,000 rotations per minutes for 10 minutes. The plasma fractions were divided and transferred into two properly labeled storage tubes and frozen at approximately −70° C. Plasma samples were evaluated for N-(1-methylpiperidin-4-yl)-N-(4-fluorophenylmethyl)-N′-(4-(2-methylpropyloxy)phenylmethyl)carbamide using a validated high performance liquid chromatography/tandem mass spectrometric (LC/MS/MS) assay.

T5 sequence (P35367 whole entry): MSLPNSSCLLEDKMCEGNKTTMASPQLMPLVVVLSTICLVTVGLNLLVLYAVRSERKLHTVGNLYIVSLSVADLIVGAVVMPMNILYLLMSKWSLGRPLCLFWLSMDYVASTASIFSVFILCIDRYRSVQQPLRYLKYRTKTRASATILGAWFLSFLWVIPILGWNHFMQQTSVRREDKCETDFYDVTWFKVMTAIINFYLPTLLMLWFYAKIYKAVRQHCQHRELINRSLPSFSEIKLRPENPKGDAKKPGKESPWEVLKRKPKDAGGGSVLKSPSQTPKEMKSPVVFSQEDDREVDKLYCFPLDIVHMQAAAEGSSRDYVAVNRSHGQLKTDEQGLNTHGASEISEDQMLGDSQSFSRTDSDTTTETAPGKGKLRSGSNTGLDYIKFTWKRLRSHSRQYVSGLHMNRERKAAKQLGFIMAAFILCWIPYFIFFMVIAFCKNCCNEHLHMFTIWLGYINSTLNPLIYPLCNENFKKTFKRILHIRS
T6 sequence (P35462 whole entry): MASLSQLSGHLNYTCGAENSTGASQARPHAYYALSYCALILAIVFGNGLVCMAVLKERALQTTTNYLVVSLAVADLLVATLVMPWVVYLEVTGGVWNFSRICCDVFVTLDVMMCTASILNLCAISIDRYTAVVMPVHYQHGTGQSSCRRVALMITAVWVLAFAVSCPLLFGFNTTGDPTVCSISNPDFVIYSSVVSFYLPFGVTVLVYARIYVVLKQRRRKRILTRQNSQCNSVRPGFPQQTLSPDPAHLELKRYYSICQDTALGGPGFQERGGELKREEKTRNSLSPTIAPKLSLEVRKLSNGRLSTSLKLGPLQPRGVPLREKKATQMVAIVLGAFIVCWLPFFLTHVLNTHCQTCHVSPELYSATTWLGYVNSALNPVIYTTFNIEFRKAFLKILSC
T1 sequence (P25021 whole entry): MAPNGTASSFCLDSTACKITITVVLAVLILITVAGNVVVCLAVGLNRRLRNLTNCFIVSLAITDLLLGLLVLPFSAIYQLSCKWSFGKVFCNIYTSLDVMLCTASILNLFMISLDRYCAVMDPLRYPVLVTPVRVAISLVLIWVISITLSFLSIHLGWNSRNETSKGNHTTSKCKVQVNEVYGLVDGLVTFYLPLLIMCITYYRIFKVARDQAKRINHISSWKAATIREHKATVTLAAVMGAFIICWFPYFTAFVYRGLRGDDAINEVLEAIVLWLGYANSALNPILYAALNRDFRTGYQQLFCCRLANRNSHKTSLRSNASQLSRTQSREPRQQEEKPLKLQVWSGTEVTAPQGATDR
T7 sequence (P08588 whole entry): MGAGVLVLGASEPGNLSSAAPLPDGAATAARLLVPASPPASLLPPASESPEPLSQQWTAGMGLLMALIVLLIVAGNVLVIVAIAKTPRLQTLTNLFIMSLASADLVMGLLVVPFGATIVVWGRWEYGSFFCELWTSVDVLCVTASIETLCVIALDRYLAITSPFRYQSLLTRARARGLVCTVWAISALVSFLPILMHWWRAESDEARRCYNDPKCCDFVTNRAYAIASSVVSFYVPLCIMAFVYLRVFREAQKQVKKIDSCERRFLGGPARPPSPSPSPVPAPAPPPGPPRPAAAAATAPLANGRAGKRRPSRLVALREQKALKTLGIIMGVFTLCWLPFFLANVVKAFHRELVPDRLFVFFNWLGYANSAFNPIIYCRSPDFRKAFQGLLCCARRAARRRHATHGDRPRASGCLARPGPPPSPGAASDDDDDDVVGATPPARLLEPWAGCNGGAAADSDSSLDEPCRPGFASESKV
T3 sequence (P07550 whole entry): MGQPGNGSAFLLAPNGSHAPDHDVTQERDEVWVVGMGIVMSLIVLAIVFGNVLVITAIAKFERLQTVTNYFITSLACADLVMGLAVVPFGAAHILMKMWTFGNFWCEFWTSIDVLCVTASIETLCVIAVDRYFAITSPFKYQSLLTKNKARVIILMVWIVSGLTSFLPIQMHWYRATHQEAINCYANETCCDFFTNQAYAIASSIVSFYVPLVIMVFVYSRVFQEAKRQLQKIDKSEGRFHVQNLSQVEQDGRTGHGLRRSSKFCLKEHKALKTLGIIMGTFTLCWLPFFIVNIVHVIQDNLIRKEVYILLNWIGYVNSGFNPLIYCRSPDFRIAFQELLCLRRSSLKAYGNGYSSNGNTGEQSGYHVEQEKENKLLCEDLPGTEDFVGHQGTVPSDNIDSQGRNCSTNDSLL
T4 sequence (P41145 whole entry): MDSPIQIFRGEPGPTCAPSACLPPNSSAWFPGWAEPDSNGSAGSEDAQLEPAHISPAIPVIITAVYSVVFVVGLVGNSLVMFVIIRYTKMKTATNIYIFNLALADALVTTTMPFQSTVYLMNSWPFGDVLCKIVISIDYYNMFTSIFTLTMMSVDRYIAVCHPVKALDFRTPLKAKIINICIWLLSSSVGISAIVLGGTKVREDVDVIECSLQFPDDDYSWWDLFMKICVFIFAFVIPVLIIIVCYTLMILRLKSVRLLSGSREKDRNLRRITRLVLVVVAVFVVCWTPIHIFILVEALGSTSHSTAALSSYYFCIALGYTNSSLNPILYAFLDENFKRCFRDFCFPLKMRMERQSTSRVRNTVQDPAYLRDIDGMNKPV

COc1ccc(CC(=O)N(Cc2ccc(C)cc2)C2CCN(C)CC2)cc1 [Example 50ELH27, 2-(4-Methoxyphenyl)-N-(4-methylbenzyl)-N-(1-methylpiperidin-4-yl)acetamide]
EC50 (Histamine 2; agonist): > 3.16 µM | IC50 (Histamine 2; antagonist): > 3.16 µM | EC50 (m5; agonist): > 3.16 µM | IC50 (m5; antagonist): > 3.16 µM | EC50 (beta 2; agonist): > 3.16 µM | IC50 (beta 2; antagonist): > 3.16 µM | EC50 (K-opiod): > 3.16 µM | IC50 (Histamine 1; Inv. Agonist): > 3.16 µM | EC50 (Histamine 1; agonist): > 3.16 µM | EC50 (D3; agonist): > 3.16 µM | IC50 (D3; antagonist): > 3.16 µM | EC50 (beta 1; agonist): > 3.16 µM | IC50 (beta 1; antagonist): > 3.16 µM | EC50 (alpha 2A; agonist): > 3.16 µM | IC50 (alpha 2A; antagonist): > 3.16 µM

CC(C)COc1ccc(CNC(=O)N(Cc2ccc(F)cc2)C2CCN(C)CC2)cc1 [N-(1-methylpiperidin-4-yl)-N-(4-fluorophenylmethyl)-N′-(4-(2-methylpropyloxy)phenylmethyl)carbamide]
plasma concentration, Maximum (Plasma levels (LC/MS/MS); 1 mg once daily): 2.33 ng/mL | plasma concentration, Median (Plasma levels (LC/MS/MS); 1 mg once daily): 1.750 ng/mL | plasma concentration, Minimum (Plasma levels (LC/MS/MS); 1 mg once daily): 0.92 ng/mL | plasma concentration, Mean (Plasma levels (LC/MS/MS); 1 mg once daily): 1.628 ng/mL | plasma concentration, Maximum (Plasma levels (LC/MS/MS); 2.5 mg once daily): 5.55 ng/mL | plasma concentration, Median (Plasma levels (LC/MS/MS); 2.5 mg once daily): 3.360 ng/mL | plasma concentration, Minimum (Plasma levels (LC/MS/MS); 2.5 mg once daily): 2.07 ng/mL | plasma concentration, Mean (Plasma levels (LC/MS/MS); 2.5 mg once daily): 3.647 ng/mL | plasma concentration, Maximum (Plasma levels (LC/MS/MS); 5 mg once daily): 13.00 ng/mL | plasma concentration, Median (Plasma levels (LC/MS/MS); 5 mg once daily): 8.720 ng/mL | plasma concentration, Minimum (Plasma levels (LC/MS/MS); 5 mg once daily): 5.91 ng/mL | plasma concentration, Mean (Plasma levels (LC/MS/MS); 5 mg once daily): 8.516 ng/mL | plasma concentration, Maximum (Plasma levels (LC/MS/MS); 20 mg once daily): 52.70 ng/mL | plasma concentration, Median (Plasma levels (LC/MS/MS); 20 mg once daily): 34.100 ng/mL | plasma concentration, Minimum (Plasma levels (LC/MS/MS); 20 mg once daily): 21.90 ng/mL | plasma concentration, Mean (Plasma levels (LC/MS/MS); 20 mg once daily): 35.033 ng/mL
